# Assay results reported in ChEMBL document CHEMBL1201862, “PubChem BioAssay data set” (2004).
# “And” between values parts separate entries of the source, which are not always exact repeats. Identical values can stand only once.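 Test compounds were applied to cells in 96-well plates for 48 hours at 5 doses. At the GI50, growth is halved.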 The source made the active and inactive calls. Rule as the data show it: active = GI50 up to about 1.1 µM and inactive = higher.
# Columns and labels:
# Experiment in all cases: NCI tumour cell line growth inhibition, 48 h
# MCF7 = tested on: MCF7
# UO-31 = tested on: UO-31
# SK-MEL-5 = tested on: SK-MEL-5
# M14 = tested on: M14
# NCI-H23 = tested on: NCI-H23
# A549 = tested on: A549
# NCI-H460 = tested on: NCI-H460
# TK-10 = tested on: TK-10
# BT-549 = tested on: BT-549
# EKVX = tested on: EKVX
# Hs-578T = tested on: Hs-578T
# U-251 = tested on: U-251
# DU-145 = tested on: DU-145
# LOX IMVI = tested on: LOX IMVI
# CAKI-1 = tested on: CAKI-1
# MOLT-4 = tested on: MOLT-4
# UACC-62 = tested on: UACC-62
# SK-MEL-2 = tested on: SK-MEL-2
# OVCAR-3 = tested on: OVCAR-3
# MDA-MB-231 = tested on: MDA-MB-231
# SR = tested on: SR
# CCRF-CEM = tested on: CCRF-CEM
# T47D = tested on: T47D
# OVCAR-4 = tested on: OVCAR-4
# HCT-116 = tested on: HCT-116
# A498 = tested on: A498
# Malme-3M = tested on: Malme-3M
# COLO 205 = tested on: COLO 205
# SNB-19 = tested on: SNB-19
# SNB-75 = tested on: SNB-75
# NCI-H522 = tested on: NCI-H522
# SF-268 = tested on: SF-268
# HL-60 = tested on: HL-60
# OVCAR-8 = tested on: OVCAR-8
# RXF 393 = tested on: RXF 393
# SF-539 = tested on: SF-539
# SF-295 = tested on: SF-295
# ACHN = tested on: ACHN
# SW-620 = tested on: SW-620
# HOP-62 = tested on: HOP-62
# IGROV-1 = tested on: IGROV-1
# HOP-92 = tested on: HOP-92
# OVCAR-5 = tested on: OVCAR-5
# HCC 2998 = tested on: HCC 2998
# NCI-H226 = tested on: NCI-H226
# NCI/ADR-RES = tested on: NCI/ADR-RES
# HCT-15 = tested on: HCT-15
# SK-OV-3 = tested on: SK-OV-3
# RPMI-8226 = tested on: RPMI-8226
# 786-0 = tested on: 786-0
# HT-29 = tested on: HT-29
# KM12 = tested on: KM12
# MDA-MB-435 = tested on: MDA-MB-435
# MDA-N = tested on: MDA-N
# SK-MEL-28 = tested on: SK-MEL-28
# UACC-257 = tested on: UACC-257
# SN12C = tested on: SN12C
smiles,measurement,setting,value
CC(Oc1ccc(Oc2cnc3ccc(Cl)cc3n2)cc1)C(=O)O (stereo unspecified),GI50,MCF7,37.3 µM (inactive) and 84.3 µM (inactive)
same,GI50,UO-31,> 95.9 µM (inactive)
same,GI50,SK-MEL-5,> 62.8 µM (inactive) and 72.8 µM (inactive)
same,GI50,M14,> 100 µM (inactive)
same,GI50,NCI-H23,> 100 µM (inactive)
same,GI50,A549,68.5 µM (inactive)
same,GI50,NCI-H460,60.4 µM (inactive) and 19.6 µM (inactive)
same,GI50,TK-10,> 100 µM (inactive)
same,GI50,BT-549,> 80.2 µM (inactive)
same,GI50,EKVX,> 100 µM (inactive)
same,GI50,Hs-578T,> 88.1 µM (inactive)
same,GI50,U-251,> 94.6 µM (inactive)
same,GI50,DU-145,> 88.9 µM (inactive)
same,GI50,LOX IMVI,51.8 µM (inactive)
same,GI50,CAKI-1,> 100 µM (inactive)
same,GI50,MOLT-4,15.1 µM (inactive)
same,GI50,UACC-62,> 100 µM (inactive) and 81.1 µM (inactive)
same,GI50,SK-MEL-2,> 100 µM (inactive)
same,GI50,OVCAR-3,> 100 µM (inactive)
same,GI50,MDA-MB-231,> 100 µM (inactive)
same,GI50,SR,> 44.5 µM (inactive)
same,GI50,CCRF-CEM,> 74.1 µM (inactive)
same,GI50,T47D,92 µM (inactive) and 64.4 µM (inactive)
same,GI50,OVCAR-4,> 100 µM (inactive)
same,GI50,HCT-116,88.7 µM (inactive)
same,GI50,A498,> 80.4 µM (inactive)
same,GI50,Malme-3M,79.3 µM (inactive)
same,GI50,COLO 205,> 70 µM (inactive)
same,GI50,SNB-19,> 100 µM (inactive)
same,GI50,SNB-75,47.3 µM (inactive)
same,GI50,NCI-H522,32.7 µM (inactive)
same,GI50,SF-268,89.7 µM (inactive)
same,GI50,HL-60,> 100 µM (inactive)
same,GI50,OVCAR-8,> 82.4 µM (inactive)
same,GI50,RXF 393,> 100 µM (inactive)
same,GI50,SF-539,> 100 µM (inactive)
same,GI50,SF-295,98.9 µM (inactive)
same,GI50,ACHN,60.5 µM (inactive)
same,GI50,SW-620,> 99.8 µM (inactive)
same,GI50,HOP-62,> 99.3 µM (inactive)
same,GI50,IGROV-1,37.4 µM (inactive) and 47.4 µM (inactive)
same,GI50,HOP-92,> 100 µM (inactive)
same,GI50,OVCAR-5,> 100 µM (inactive)
Nc1ccc(S(=O)(=O)Nc2nnc(S(N)(=O)=O)s2)cc1,GI50,MCF7,> 100 µM (inactive)
same,GI50,UO-31,> 100 µM (inactive)
same,GI50,M14,> 100 µM (inactive)
same,GI50,NCI-H23,> 100 µM (inactive)
same,GI50,A549,> 100 µM (inactive)
same,GI50,NCI-H460,> 100 µM (inactive)
same,GI50,TK-10,> 100 µM (inactive)
same,GI50,HCC 2998,> 100 µM (inactive)
same,GI50,BT-549,> 100 µM (inactive)
same,GI50,EKVX,> 100 µM (inactive)
same,GI50,U-251,> 100 µM (inactive)
same,GI50,DU-145,> 100 µM (inactive)
same,GI50,NCI-H226,45.4 µM (inactive)
same,GI50,LOX IMVI,> 100 µM (inactive)
same,GI50,CAKI-1,> 100 µM (inactive)
same,GI50,NCI/ADR-RES,> 100 µM (inactive)
same,GI50,HCT-15,> 100 µM
same,GI50,MOLT-4,> 100 µM (inactive)
same,GI50,UACC-62,> 100 µM (inactive)
same,GI50,SK-OV-3,> 100 µM (inactive)
same,GI50,RPMI-8226,> 100 µM (inactive)
same,GI50,MDA-MB-231,> 100 µM (inactive)
same,GI50,SR,> 100 µM (inactive)
same,GI50,T47D,> 100 µM (inactive)
same,GI50,OVCAR-4,> 100 µM (inactive)
same,GI50,HCT-116,> 100 µM (inactive)
same,GI50,A498,> 100 µM (inactive)
same,GI50,Malme-3M,> 100 µM (inactive)
same,GI50,786-0,> 100 µM (inactive)
same,GI50,COLO 205,> 100 µM (inactive)
same,GI50,SNB-19,> 100 µM (inactive)
same,GI50,SNB-75,> 100 µM (inactive)
same,GI50,NCI-H522,> 100 µM (inactive)
same,GI50,SF-268,> 100 µM (inactive)
same,GI50,HL-60,> 100 µM (inactive)
same,GI50,RXF 393,> 100 µM (inactive)
same,GI50,SF-539,> 100 µM (inactive)
same,GI50,SF-295,> 100 µM (inactive)
same,GI50,HT-29,> 100 µM (inactive)
same,GI50,KM12,> 100 µM (inactive)
same,GI50,ACHN,> 100 µM (inactive)
same,GI50,SW-620,> 100 µM (inactive)
same,GI50,MDA-MB-435,> 100 µM (inactive)
same,GI50,HOP-92,34.5 µM (inactive)
same,GI50,OVCAR-5,> 100 µM (inactive)
CC1(C)[C@H](O)CC[C@]2(C)C3=CC[C@@]4(C)[C@@H]5C[C@](C)(CO)CC[C@]5(C)CC[C@]4(C)C3=CC[C@@H]12,GI50,MCF7,> 100 µM (inactive)
same,GI50,UO-31,1.98 µM (inactive)
same,GI50,SK-MEL-5,> 100 µM (inactive)
same,GI50,M14,> 100 µM (inactive)
same,GI50,NCI-H23,> 100 µM (inactive)
same,GI50,A549,1.75 µM (inactive)
same,GI50,NCI-H460,1.91 µM (inactive)
same,GI50,MDA-N,> 100 µM (inactive)
same,GI50,BT-549,> 100 µM (inactive)
same,GI50,EKVX,> 100 µM (inactive)
same,GI50,U-251,1.84 µM (inactive)
same,GI50,DU-145,> 100 µM (inactive)
same,GI50,SK-MEL-28,> 100 µM (inactive)
same,GI50,UACC-257,> 100 µM (inactive)
same,GI50,MOLT-4,> 100 µM (inactive)
same,GI50,UACC-62,> 100 µM (inactive)
same,GI50,SK-OV-3,> 100 µM (inactive)
same,GI50,SK-MEL-2,> 100 µM (inactive)
same,GI50,OVCAR-3,1.79 µM (inactive)
same,GI50,SR,1.75 µM (inactive)
same,GI50,CCRF-CEM,1.63 µM (inactive)
same,GI50,HCT-116,2.01 µM (inactive)
same,GI50,Malme-3M,> 100 µM (inactive)
same,GI50,COLO 205,3.23 µM (inactive)
same,GI50,SF-268,> 100 µM (inactive)
same,GI50,HL-60,> 100 µM (inactive)
same,GI50,OVCAR-8,2.07 µM (inactive)
same,GI50,ACHN,2.13 µM (inactive)
same,GI50,SN12C,2.1 µM (inactive)
same,GI50,HOP-62,> 100 µM (inactive)
same,GI50,IGROV-1,> 100 µM (inactive)
same,GI50,HOP-92,> 100 µM (inactive)
same,GI50,OVCAR-5,> 100 µM (inactive)
